Assay results as given in patent US8680113B2, “BMI-1 protein expression modulators” (PTC Therapeutics, Inc., priority 2008, dated 2014).
pIC50: −log10 of the molar value.

These compounds were tested on Bmi-1 (assay: Sandwich ELISA Assay (Bmi-1 ELISA in HT-1080 cells)).
Type: cell-based, human
Method: Cell Seeding and Compound Treatment (Day 1):
HT-1080 cells were seeded at 8000 cells/well (50 uL) in 96-well tissue culture plates. After the cells become adherent (3-4 hours), 2× diluted stocks of compounds in 50 uL DMEM containing 1% DMSO (final DMSO concentration was 0.5%) were added and the plates were incubated at 37° C. under 5% CO2 for 40-48 hours
ELISA Plate First Antibody Preparation (Day 2):
The First Antibody (Millipore Mouse, monoclonal to mouse Bmi-1, clone F6, catalog #05-637) diluted to 2 ug/mL in PBS was added (100 uL) to each well of a Nunc MaxiSorp 96-well ELISA plate. The plate was covered with a plate seal and allowed to stand overnight.
Cell Lysate Preparation (Day 3):
Fresh 1× Lysis buffer was prepared on the day of the assay as follows: 1 mM EDTA, 150 mM NaCl, 0.5% Triton-X 100, 10 mM NaF, 20 mM B-Glycerophosphate, 1 mM DTT (in PBS, pH 7.2-7.4) and 1×HALT protease inhibitor cocktail (Pierce #78410).
1× Lysis Buffer (40 uL) was added to each well and the plate was shaken for 5-10 minutes on an orbital shaker to allow cell lysis, then Diluent (1% BSA in PBS in 0.5% NP40) (100 uL) was added to each well.
The Bmi-1 standard curve was prepared in Diluent at the following concentrations of protein: 8000, 4000, 2000, 1000, 500, 250, 125, 0 pg/mL The Bmi-1 Recombinant Protein Standard (Novus Biologicals PCGF4 Recombinant Protein (P01), catalog #H00000648-P01) used in the standard curve was stored at −80° C., and on first thaw, diluted to 10 ug/uL in Blocking Buffer (1% BSA in PBS; BSA: Fisher Scientific Catalog #1600-100) before being aliquoted and refrozen at −80° C. Aliquots can be kept at 4° C. and reused after first thaw, but only for 1-2 weeks. The Bmi-1 Recombinant Protein Standard contains a GST-fusion tag and thus will show up on western blots around 70 Kda.
The prepared ELISA plate was washed 3× with Wash Buffer (0.05% Tween-20 in PBS). The final wash was removed from the plate and the plate was blotted dry on paper towels. Blocking Buffer (300 uL) (1% BSA in PBS) was added per well. The plate was covered with a plate seal and incubated at room temperature for 1 hour. The blocked plate was washed 3× with Wash Buffer, the final wash was removed and the plate was blotted dry on paper towels. The previously prepared samples and standards were added (at 100 uL/well) and the plate was covered with a plate seal and incubated at 4° C. overnight.
The prepared ELISA plate was removed from 4° C., incubated at room temperature for 30 minutes, then washed and blotted dry as previously described for Day 3. The Second Antibody (Cell Signaling Rabbit anti-Bmi-1, Cat#2830) diluted to 1:600 in Blocking Buffer was added (100 uL) to each well, except as needed for background control wells. The plate was covered with a plate seal and incubated for 1.5 hrs at room temperature.
The ELISA plate was washed and blotted dry as previously described. The Third Antibody (Cell Signaling HRP conjugated anti-rabbit IgG (CellSignaling, Cat#:7074) diluted to 1:300 in Blocking Buffer was added (100 uL) to each well, except as needed for background control wells. The plate was incubated for 1 hr at room temperature.
The plate was washed and blotted dry as previously described, then prepared TMB substrate (TMB substrate kit, Pierce catalog #34021) (prepared by mixing kit reagents 1:1) (100 uL) was added per well. The plate was incubated for 20-30 minutes at room temperature in the dark, then Stop Solution (2 M sulfuric acid in water) (50 uL) was added per well. The plates were read at OD450 (experimental) and OD570 (reference).

| Compound | pIC50 |
| --- | --- |
| 1-(3-{[4-(6-fluoro-2-methylimidazo[1,2-a]pyridin-3-yl)-1,3-thiazol-2-yl]amino}phenyl)ethanone [Cpd 238] | > 6.30 |
| 1-(4-{[4-(imidazo[1,2-a]pyrimidin-3-yl)pyrimidin-2-yl]amino}phenyl)ethanone [Cpd 258] | > 6.30 |
| CCOc1ccc(Nc2nc(-c3c(C)nc4ncccn34)cs2)cc1 [Cpd 13, N-(4-ethoxyphenyl)-4-(2-methylimidazo[1,2-a]pyrimidin-3-yl)thiazol-2-amine] | > 6.30 |
| COc1ccc(Nc2nc(-c3c(C)nc4cc(C)ccn34)cs2)cc1 [Cpd 17, 4-(2,7-dimethylimidazo[1,2-a]pyridin-3-yl)-N-(4-methoxyphenyl)thiazol-2-amine] | > 6.30 |
| COc1cc(Cl)c(Nc2nc(-c3c(C)nc4ncccn34)cs2)c(Cl)c1 [Cpd 19, N-(2,6-dichloro-4-methoxyphenyl)-4-(2-methylimidazo[1,2-a]pyrimidin-3-yl)thiazol-2-amine] | 6.00 to 6.30 |
| COc1cc(F)c(Nc2nc(-c3c(C)nc4ncccn34)cs2)c(F)c1 [Cpd 20, N-(2,6-difluoro-4-methoxyphenyl)-4-(2-methylimidazo[1,2-a]pyrimidin-3-yl)thiazol-2-amine] | 5.52 to 6.00 |
| Cc1cc(Br)c(Nc2nc(-c3c(C)nc4ncccn34)cs2)c(Br)c1 [Cpd 21, N-(2,6-dibromo-4-methylphenyl)-4-(2-methylimidazo[1,2-a]pyrimidin-3-yl)thiazol-2-amine] | > 6.30 |
| Cc1nc2ncccn2c1-c1csc(Nc2c(Br)cc(Br)cc2Br)n1 [Cpd 22, 4-(2-methylimidazo[1,2-a]pyrimidin-3-yl)-N-(2,4,6-tribromophenyl)thiazol-2-amine] | > 6.30 |
| COCCOc1cc(Br)c(Nc2nc(-c3c(C)nc4ncccn34)cs2)c(Br)c1 [Cpd 23, N-(2,6-dibromo-4-(2-methoxyethoxy)phenyl)-4-(2-methylimidazo[1,2-a]pyrimidin-3-yl)thiazol-2-amine] | 5.52 to 6.00 |
| Cc1ccn2c(-c3csc(Nc4cccc(O)c4)n3)c(C)nc2c1 [Cpd 31, 3-{[4-(2,7-dimethylimidazo[1,2-a]pyridin-3-yl)-1,3-thiazol-2-yl]amino}phenol] | > 6.30 |
| Cc1ccc(Nc2nc(-c3c(C)nc4cc(C)ccn34)cs2)cc1 [Cpd 32, 4-(2,7-dimethylimidazo[1,2-a]pyridin-3-yl)-N-(4-methylphenyl)-1,3-thiazol-2-amine] | > 6.30 |
| CC(=O)c1ccc(Nc2nc(-c3c(C)nc4cc(C)ccn34)cs2)cc1 [Cpd 33, 1-(4-{[4-(2,7-dimethylimidazo[1,2-a]pyridin-3-yl)-1,3-thiazol-2-yl]amino}phenyl)ethanone] | > 6.30 |
| CC(=O)c1ccc(Nc2nc(-c3c(C)nc4ncccn34)cs2)cc1 [Cpd 34, 1-(4-{[4-(2-methylimidazo[1,2-a]pyrimidin-3-yl)-1,3-thiazol-2-yl]amino}phenyl)ethanone] | > 6.30 |
| Cc1nc2ccccn2c1-c1csc(Nc2cccc(O)c2)n1 [Cpd 35, 3-{[4-(2-methylimidazo[1,2-a]pyridin-3-yl)-1,3-thiazol-2-yl]amino}phenol] | > 6.30 |
| Cc1nc2ccccn2c1-c1csc(Nc2ccc(O)cc2)n1 [Cpd 36, 4-{[4-(2-methylimidazo[1,2-a]pyridin-3-yl)-1,3-thiazol-2-yl]amino}phenol] | > 6.30 |
| Cc1nc2ncccn2c1-c1csc(Nc2ccc3c(c2)OCO3)n1 [Cpd 37, N-(1,3-benzodioxol-5-yl)-4-(2-methylimidazo[1,2-a]pyrimidin-3-yl)-1,3-thiazol-2-amine] | > 6.30 |
| COc1ccc(Nc2nc(-c3c(C)nc4ccccn34)cs2)cc1 [Cpd 44, N-(4-methoxyphenyl)-4-(2-methylimidazo[1,2-a]pyridin-3-yl)-1,3-thiazol-2-amine] | > 6.30 |
| Cc1nc2ccccn2c1-c1csc(Nc2ccc3c(c2)OCO3)n1 [Cpd 56, N-(1,3-benzodioxol-5-yl)-4-(2-methylimidazo[1,2-a]pyridin-3-yl)-1,3-thiazol-2-amine] | > 6.30 |

Now from value to compound:

| pIC50 | Compound |
| --- | --- |
| > 6.30 | Cc1nc2ncccn2c1-c1csc(Nc2c(Cl)cccc2Cl)n1 [Cpd 38, N-(2,6-dichlorophenyl)-4-(2-methylimidazo[1,2-a]pyrimidin-3-yl)-1,3-thiazol-2-amine] |
| > 6.30 | Cc1nc2ncccn2c1-c1csc(N(C)c2ccc3c(c2)OCO3)n1 [Cpd 40, N-(1,3-benzodioxol-5-yl)-N-methyl-4-(2-methylimidazo[1,2-a]pyrimidin-3-yl)-1,3-thiazol-2-amine] |
| > 6.30 | Cc1nc2ccccn2c1-c1csc(Nc2ccc(N(C)C)cc2)n1 [Cpd 41, N,N-dimethyl-N′-[4-(2-methylimidazo[1,2-a]pyridin-3-yl)-1,3-thiazol-2-yl]benzene-1,4-diamine] |
| > 6.30 | Cc1nc2ncccn2c1-c1ccnc(Nc2ccc(N(C)C)cc2)n1 [Cpd 43, N,N-dimethyl-N′-[4-(2-methylimidazo[1,2-a]pyrimidin-3-yl)pyrimidin-2-yl]benzene-1,4-diamine] |
| > 6.30 | COc1ccc(Nc2nc(-c3c(C)nc4ncccn34)cs2)cc1F [Cpd 45, N-(3-fluoro-4-methoxyphenyl)-4-(2-methylimidazo[1,2-a]pyrimidin-3-yl)-1,3-thiazol-2-amine] |
| > 6.30 | COc1ccc(Nc2nc(-c3c(C)nc4ncccn34)cs2)cc1Cl [Cpd 46, N-(3-chloro-4-methoxyphenyl)-4-(2-methylimidazo[1,2-a]pyrimidin-3-yl)-1,3-thiazol-2-amine] |
| > 6.30 | COc1ccc(N(C)c2nccc(-c3c(C)nc4ncccn34)n2)cc1 [Cpd 47, N-(4-methoxyphenyl)-N-methyl-4-(2-methylimidazo[1,2-a]pyrimidin-3-yl)pyrimidin-2-amine] |
| > 6.30 | Cc1nc2ncccn2c1-c1csc(Nc2ccc(Br)cc2)n1 [Cpd 48, N-(4-bromophenyl)-4-(2-methylimidazo[1,2-a]pyrimidin-3-yl)-1,3-thiazol-2-amine] |
| > 6.30 | COc1ccc(Nc2nc(-c3c(C)nc4ccccn34)cs2)cc1Cl [Cpd 50, N-(3-chloro-4-methoxyphenyl)-4-(2-methylimidazo[1,2-a]pyridin-3-yl)-1,3-thiazol-2-amine] |
| > 6.30 | COc1ccc(Nc2nc(-c3c(C)nc4ccccn34)cs2)cc1F [Cpd 51, N-(3-fluoro-4-methoxyphenyl)-4-(2-methylimidazo[1,2-a]pyridin-3-yl)-1,3-thiazol-2-amine] |
| > 6.30 | COCCOc1ccc(Nc2nc(-c3c(C)nc4ccccn34)cs2)cc1 [Cpd 52, N-[4-(2-methoxyethoxy)phenyl]-4-(2-methylimidazo[1,2-a]pyridin-3-yl)-1,3-thiazol-2-amine] |
| > 6.30 | Cc1nc2ccccn2c1-c1csc(Nc2ccc(I)cc2)n1 [Cpd 53, N-(4-iodophenyl)-4-(2-methylimidazo[1,2-a]pyridin-3-yl)-1,3-thiazol-2-amine] |
| > 6.30 | COCCOc1cc(Br)c(Nc2nc(-c3c(C)nc4ccccn34)cs2)c(Br)c1 [Cpd 54, N-[2,6-dibromo-4-(2-methoxyethoxy)phenyl]-4-(2-methylimidazo[1,2-a]pyridin-3-yl)-1,3-thiazol-2-amine] |
| > 6.30 | CC(=O)c1ccc(Nc2nc(-c3c(C)nc4ccccn34)cs2)cc1 [Cpd 55, 1-(4-{[4-(2-methylimidazo[1,2-a]pyridin-3-yl)-1,3-thiazol-2-yl]amino}phenyl)ethanone] |
| > 6.30 | COc1cc(F)c(Nc2nc(-c3c(C)nc4ccccn34)cs2)c(F)c1 [Cpd 57, N-(2,6-difluoro-4-methoxyphenyl)-4-(2-methylimidazo[1,2-a]pyridin-3-yl)-1,3-thiazol-2-amine] |
